Results: PMC12040169 (PLOS Biology, 2025)

Assay: in vitro
Settings: human, hela cells, % viability

CCN(CC)C(=O)C1CCCN(Cc2cccc(Oc3ccccc3)c2)C1 (stereo not drawn) [CBK261581]
viability at 28.5 h, 10 µM: 92.6%

O=C(NCCCO)c1cc2ccccc2[nH]1 [CBK267638]
viability at 28.5 h, 10 µM: 87.9%

Cc1ccc2cc(C(=O)N3CCCCC3CN3CCOCC3)[nH]c2c1 (stereo not drawn) [CBK304374]
viability at 28.5 h, 10 µM: 90.4%

O=C1CC(Cc2ccccc2)C(=O)N1CCCn1ccnc1 (stereo not drawn) [CBK265123G]
viability at 28.5 h, 10 µM: 97.4%

Cc1cccc2[nH]c(-c3ccccc3)nc12 [CBK000110]
viability at 28.5 h, 10 µM: 92.9%

CN(c1cc(F)ccc1[N+](=O)[O-])S(=O)(=O)c1ccccc1 [CBK001369]
viability at 28.5 h, 10 µM: 97.5%

S=C1NCCN1c1nnc(-c2cccs2)[nH]1 [CBK007096]
viability at 28.5 h, 10 µM: 97.3%

O=C1NC(=O)N(c2ccc(O)cc2)C(=O)/C1=C/c1ccc(OCc2ccc(Cl)cc2Cl)cc1 [CBK263842]
viability at 28.5 h, 10 µM (bulk resorufin, single well): 92.1%

Cc1nn(C)cc1-c1cncn1CCOc1ccc(Cl)cc1 [CBK281508]
viability at 28.5 h, 10 µM: 87.5%

CC(C)(C)n1ncc2c(=O)n(CC(=O)Nc3ccccc3)cnc21 [CBK287541]
viability at 28.5 h, 10 µM: 115%

O=[N+]([O-])c1ccc(CN2CCN(Cc3ccc4c(c3)OCO4)CC2)o1 [CBK074557]
viability at 28.5 h, 10 µM: 88.7%

CCCC/C=C/c1cncc(Nc2cc(OC)c(OC)c(OC)c2)n1 [CBK065155]
viability at 28.5 h, 10 µM: 102%

Cc1cc(C)n2ncc(C(=O)N3CCCC3c3ccsc3)c2n1 (stereo not drawn) [CBK305616]
viability at 28.5 h, 10 µM: 94.6%

CCOc1ccc(-c2cncc(NC3CCC(O)CC3)n2)cc1 (stereo not drawn) [CBK065877]
viability at 28.5 h, 10 µM: 88.9%

CC(CN(C)C(=O)c1cocn1)Oc1ccc(Cl)c(Cl)c1 (stereo not drawn) [CBK304285]
viability at 28.5 h, 10 µM: 97.6%

CCc1nn(CC(=O)N(C(C)C)C(C)C)c(=O)c2cc3occc3n12 [CBK283658]
viability at 28.5 h, 10 µM: 89.3%

COc1ccc(C(C)C)cc1-c1cncc(NCc2ccc3c(c2)OCO3)n1 [CBK065348]
viability at 28.5 h, 10 µM: 95.2%

Cc1cccc(NC(=O)Cn2cc(C(=O)COc3ccccc3)c3ccccc32)c1 [CBK268654]
viability at 28.5 h, 10 µM: 104%

O=C(Cc1ccsc1)N1CCN(C(=O)c2ccco2)CC1 [CBK144446]
viability at 28.5 h, 10 µM: 86%

CCCC(=O)C1(c2ccccc2)CCNCC1 [CBK022936C]
viability at 28.5 h, 10 µM (bulk resorufin, single well): 89.3%

CC1CCc2nc(NS(=O)(=O)c3ccccc3)sc2C1 (stereo not drawn) [CBK026915]
viability at 28.5 h, 10 µM: 110%

COCCNC(=O)Cn1c(-c2ccco2)cc2cccnc21 [CBK282720]
viability at 28.5 h, 10 µM: 80.6%

Oc1ccc(-n2ncc(-c3ccc(Cl)cc3)n2)cc1 [CBK112794]
viability at 28.5 h, 10 µM: 86.8%

O=C(c1c(NS(=O)(=O)c2cccc3cccnc23)sc2c1CCCC2)N1CCOCC1 [CBK028655]
viability at 28.5 h, 10 µM: 84.2%

CCCC(=O)N1CCCC1c1cc2n(n1)[C@@H](C(F)(F)F)C[C@@H](C)N2 (stereo partly drawn) [CBK283003]
viability at 28.5 h, 10 µM: 92.4%

CC(C)(C)OC(=O)N1CCCN(Cc2nc(-c3cccnc3)no2)CC1 [CBK305309]
viability at 28.5 h, 10 µM: 97.2%

CN1CCN(C(=O)CC[C@@H]2CNC(=O)[C@@H]3C[C@H](NC(=O)c4ccccc4)CN23)CC1 [CBK289014]
viability at 28.5 h, 10 µM: 86.7%

O=C(CN(c1ccc2c(c1)OCCO2)S(=O)(=O)c1ccccc1)N1CCN(Cc2ccccc2)CC1 [CBK266444]
viability at 28.5 h, 10 µM: 113%

CCCC/C=C/c1cnc2[nH]c(=O)n(Cc3ccccn3)c2n1 [CBK064365]
viability at 28.5 h, 10 µM: 102%

OCCN(Cc1cccnc1)Cc1cccn1-c1ccccc1F [CBK283019]
viability at 28.5 h, 10 µM: 92.2%

COC(=O)c1ccccc1NC(=O)CSc1nnc(-c2sc(N)nc2C)o1 [CBK266250]
viability at 28.5 h, 10 µM: 100%

c1cc(-c2ccc(OC3CCNCC3)cc2)c2cccnc2c1 [CBK103528T]
viability at 28.5 h, 10 µM: 92.7%

O=C(O)CC1(CC(=O)N2CCC3(CC2)OCc2cc(F)ccc2O3)CCCC1 [CBK060858]
viability at 28.5 h, 10 µM (bulk resorufin, single well): 94.7%

CC(C)(C)OC(=O)NCc1ccc(-c2ccc(Nc3cccnc3)nc2)cc1 [CBK037804]
viability at 28.5 h, 10 µM: 95.3%

CC(=O)Nc1ccccc1NC(=O)CCCN1C(=O)CCC1=O [CBK267681]
viability at 28.5 h, 10 µM: 92.8%

Cc1noc(C)c1S(=O)(=O)NC1CCN(Cc2ccccc2)CC1 [CBK062028]
viability at 28.5 h, 10 µM: 83.4%

NCCCOc1cc(N2CCCC2)ncn1 [CBK115285]
viability at 28.5 h, 10 µM: 106%

CS(=O)(=O)Nc1ccc(-c2cccc(C(F)(F)F)c2)c2ccccc12 [CBK083746]
viability at 28.5 h, 10 µM: 95.4%

COCCCN1C(=O)c2[nH]nc(-c3cc(C)c(C)cc3O)c2C1c1ccc(SC)cc1 (stereo not drawn) [CBK268884]
viability at 28.5 h, 10 µM: 89%

COC(=O)C(CC(=O)c1ccc(Br)cc1)n1cccn1 (stereo not drawn) [CBK269338]
viability at 28.5 h, 10 µM: 104%

CC(Cc1nc(-c2ccnn2C)cs1)n1cc(Cl)cn1 (stereo not drawn) [CBK304152]
viability at 28.5 h, 10 µM: 96.6%

CCc1cccc(NC(=O)CCc2ccccc2)c1 [CBK263637]
viability at 28.5 h, 10 µM: 112%

CC(C)C(NS(=O)(=O)c1ccc(Oc2ccccc2Cl)cc1)C(=O)O (stereo not drawn) [CBK267195]
viability at 28.5 h, 10 µM: 100%

O=C1NC(=O)C(CCC(=O)N2CCN(c3nc4ccccc4s3)CC2)C(=O)N1 [CBK285807]
viability at 28.5 h, 10 µM (bulk resorufin, single well): 86.6%

Cc1ccc(C(=O)N2CCN(S(=O)(=O)c3sc(C(=O)O)c(C)c3C(=O)O)CC2)cc1 [CBK297120]
viability at 28.5 h, 10 µM: 91.1%

CN1C(=O)CC2(C1=O)C(=O)N(CCN1CCCC1=O)c1ccc(F)cc12 (stereo not drawn) [CBK075463]
viability at 28.5 h, 10 µM: 90.4%

CCCCCC1=NN(C(=O)OCC)C(O)(C(F)(F)F)C1 (stereo not drawn) [CBK027739]
viability at 28.5 h, 10 µM: 94.9%

CC1(C)NC(=O)N(CC(O)COc2ccc([N+](=O)[O-])cc2)C1=O (stereo not drawn) [CBK262840]
viability at 28.5 h, 10 µM: 98.8%

CCOC(=O)Cn1c(-c2ccc(OC)cc2)cc2cccnc21 [CBK283320]
viability at 28.5 h, 10 µM: 84.2%

Cc1ccc(SC(C)C(=O)Nc2nc[nH]n2)cc1 (stereo not drawn) [CBK268638]
viability at 28.5 h, 10 µM: 107%

CCCCC1=NN2C(=N)/C(=C/c3cn(Cc4ccc([N+](=O)[O-])cc4)c4ccccc34)C(=O)N=C2S1 [CBK264320]
viability at 28.5 h, 10 µM: 106%

O=C(CSc1nnc(-c2ccccc2O)n1-c1ccccc1)Nc1ccc(N2CCOCC2)cc1 [CBK267874]
viability at 28.5 h, 10 µM: 103%

O=[N+]([O-])c1cc(S(=O)(=O)Nc2cccc3ccccc23)ccc1N1CCNCC1 [CBK015584C]
viability at 28.5 h, 10 µM: 90%

COc1ccccc1Nc1nc(N)c2ccccc2n1 [CBK266665C]
viability at 28.5 h, 10 µM: 90.4%

O=C(c1cccs1)N(Cc1ccco1)Cc1cc2ccccc2[nH]c1=O [CBK269602]
viability at 28.5 h, 10 µM: 104%

CSCCC(=O)Nc1cccc2[nH]ccc12 [CBK159655]
viability at 28.5 h, 10 µM: 105%

c1ccc(CCNc2nccnc2-c2ccoc2)nc1 [CBK036790]
viability at 28.5 h, 10 µM: 86.1%

CN(C)CCN1CCN(c2cc(Nc3ccc(N(C)C)cc3)nc3ccnn23)CC1 [CBK037211]
viability at 28.5 h, 10 µM: 93.4%

CCN(CC)S(=O)(=O)c1cc(C(=O)NC2CCCCC2)ccc1Br [CBK058354]
viability at 28.5 h, 10 µM: 96.3%

Cc1noc(C)c1CN1CCC(C(O)c2ccccc2)CC1 (stereo not drawn) [CBK305783]
viability at 28.5 h, 10 µM: 93.9%

O=C(NC1CCCOC1)c1cc(-c2cccs2)no1 (stereo not drawn) [CBK282565]
viability at 28.5 h, 10 µM: 82%

O=C(Cn1cnnn1)N1CCc2ccccc21 [CBK200367]
viability at 28.5 h, 10 µM: 97.4%

OC(COCc1ccc(Cl)cc1)CN1CCN(c2cccc(Cl)c2)CC1 (stereo not drawn) [CBK278315C]
viability at 28.5 h, 10 µM: 87.9%

O=S1(=O)CCN(CC2COc3ccccc3O2)CC1 (stereo not drawn) [CBK074789]
viability at 28.5 h, 10 µM: 88.5%

Cc1cnc(CN2CCNC(=O)C2c2ccccc2C(F)(F)F)o1 (stereo not drawn) [CBK306431]
viability at 28.5 h, 10 µM: 85.4%

CC1(N2CCOCC2)CC2(O)C(=[N+]1[O-])CCc1c2no[n+]1[O-] (stereo not drawn) [CBK261516]
viability at 28.5 h, 10 µM: 90.5%

CS(=O)(=O)N(Cc1ccccc1)c1ccc(C(=O)Nc2ccc3c(c2)OCO3)cc1 [CBK033562]
viability at 28.5 h, 10 µM: 85.4%

COc1ccc(CCCC(=O)Nc2cc3cccnc3c(Br)n2)cc1 [CBK119486]
viability at 28.5 h, 10 µM: 99.6%

CC(NC(=O)N1CCCN(Cc2ccccn2)CC1)c1cnn(C)c1 (stereo not drawn) [CBK307537]
viability at 28.5 h, 10 µM: 102%

O=C(Cn1c(NCCCO)nc2ccccc21)c1cccs1 [CBK023894B]
viability at 28.5 h, 10 µM: 96.5%

Cc1cc(C)c(C)c(S(=O)(=O)N(CCO)CCO)c1C [CBK269082]
viability at 28.5 h, 10 µM: 90.5%

CCN(CCC(F)(F)F)C(=O)Cc1csc(NC(=O)c2ccoc2C)n1 [CBK305729]
viability at 28.5 h, 10 µM: 83.3%

O=C(O)/C(=C\c1ccc(Cl)cc1)NC(=O)c1ccccc1I [CBK265701]
viability at 28.5 h, 10 µM: 90.1%

Cc1ccc(-c2nsc(SCC(=O)c3ccc(Cl)cc3)n2)cc1 [CBK113177]
viability at 28.5 h, 10 µM: 92.1%

Nc1nc(OCCOc2ccccc2)cnc1-c1ccc2c(c1)OCO2 [CBK145097]
viability at 28.5 h, 10 µM: 83.4%

CCc1nc2c(OCCOc3ccc(F)cc3)cccn2c1N(C)C(=O)c1ccncc1 [CBK147472]
viability at 28.5 h, 10 µM: 93.6%

Cc1nc(CSc2nc3sc4c(c3c(=O)n2-c2ccccc2)CCCCC4)cs1 [CBK265706]
viability at 28.5 h, 10 µM: 110%

O=C(CCCCCN1C(=O)c2ccccc2C1=O)Nc1cccc(C(=O)O)c1 [CBK287261]
viability at 28.5 h, 10 µM: 85.4%

c1ccc2c(CSc3ncn[nH]3)cccc2c1 [CBK025610]
viability at 28.5 h, 10 µM: 114%

C=CCNc1nccnc1-c1cnc(OC)nc1OC [CBK036922]
viability at 28.5 h, 10 µM: 91.7%

CCCC(=O)c1ccc(S(=O)(=O)N2CCCN(Cc3ccc(F)c(C#N)c3)CC2)cc1 [CBK062910]
viability at 28.5 h, 10 µM: 114%

CC(C)C(=O)NCCN1CCOCC1 [CBK034322]
viability at 28.5 h, 10 µM: 115%

N#Cc1cccc(C(=O)N2CCC(NC(=O)c3ccc(F)cc3)CC2)c1 [CBK305717]
viability at 28.5 h, 10 µM: 111%

CC1=NN(c2nc(-c3ccc(Br)cc3)cs2)C(=O)C1/N=N/c1ccccc1C(=O)O (stereo not drawn) [CBK262440]
viability at 28.5 h, 10 µM: 91.8%

CC(=O)Nc1ccc(NC(=O)c2cc(-c3ccc(Cl)cc3Cl)nc3ccccc23)cc1 [CBK265080]
viability at 28.5 h, 10 µM: 80.8%

CCN(Cc1ccccc1)Cc1nc2ccccc2c(=O)[nH]1 [CBK283203]
viability at 28.5 h, 10 µM: 95.6%

Cc1ccc(-c2nnc([C@H]3CCN(C(=O)NCc4ccccc4)C3)o2)cc1 [CBK289411]
viability at 28.5 h, 10 µM: 93%

COc1ccc2[nH]c([C@H]3CCN(S(C)(=O)=O)C3)nc2c1 [CBK289377]
viability at 28.5 h, 10 µM: 111%

COc1ccc(CN2CCCN(c3ccnc(OCC4COc5ccccc5O4)n3)CC2)cc1 (stereo not drawn) [CBK083234T]
viability at 28.5 h, 10 µM: 96.8%

CCN(CC)C(=O)C1CCCN(C(=O)NCCc2ccc(OC)c(OC)c2)C1 (stereo not drawn) [CBK156134]
viability at 28.5 h, 10 µM: 97.7%
